Test results from ChEMBL document CHEMBL1149398, “Pyrrolizidine esters and amides as 5-HT4 receptor agonists and antagonists” (J Med Chem, 2006).

How the values were obtained:
Salmonella typhi [1] = assay: Mutagenic activity in a GLP study using Salmonella Typhimurium TA98 in presence of S9 fraction at 7.2-3600 ug/plate; type: toxicity, organism-based; settings: salmonella enterica subsp. enterica […]
Salmonella typhi [2] = assay: Mutagenic activity in a GLP study using Salmonella Typhimurium TA1538 in presence of S9 fraction at 7.2-3600 ug/plate; type: toxicity, organism-based; settings: salmonella enterica subsp. enterica […]
Canis familiaris [3] = assay: Contractile response of the antrum in iv dosed fasted dog; type: functional; settings: Canis lupus familiaris
Salmonella typhi [4] = assay: Mutagenic activity in a GLP study using Salmonella Typhimurium TA97 in presence of S9 fraction at 7.2-3600 ug/plate; type: toxicity, organism-based; settings: salmonella enterica subsp. enterica […]
Salmonella typhi [5] = assay: Mutagenic activity in a GLP study using Salmonella Typhimurium TA1535 in presence of S9 fraction at 7.2-3600 ug/plate; type: toxicity, organism-based; settings: salmonella enterica subsp. enterica […]
[6] = target: Beta-1 adrenergic receptor (Homo sapiens, UniProt P08588); assay: Binding affinity to adrenergic beta-1 receptor
[7] = target: Serotonin 3 receptor (5HT3) (Mus musculus) (UniProt Q9JHJ5+P23979); assay: Antagonism at 5HT3 receptor in mice by von Bezold-Jarisch reflex inhibition at 1 mg/kg, ip; type: functional, organism-based; parameters: dose 1 mg/kg
[8] = target: T1, Adrenergic receptor alpha-1 (Homo sapiens, UniProt P35348+P25100+P35368); assay: Binding affinity to adrenergic alpha-1 receptor; type: protein assay
T1 sequence (P35348 whole entry): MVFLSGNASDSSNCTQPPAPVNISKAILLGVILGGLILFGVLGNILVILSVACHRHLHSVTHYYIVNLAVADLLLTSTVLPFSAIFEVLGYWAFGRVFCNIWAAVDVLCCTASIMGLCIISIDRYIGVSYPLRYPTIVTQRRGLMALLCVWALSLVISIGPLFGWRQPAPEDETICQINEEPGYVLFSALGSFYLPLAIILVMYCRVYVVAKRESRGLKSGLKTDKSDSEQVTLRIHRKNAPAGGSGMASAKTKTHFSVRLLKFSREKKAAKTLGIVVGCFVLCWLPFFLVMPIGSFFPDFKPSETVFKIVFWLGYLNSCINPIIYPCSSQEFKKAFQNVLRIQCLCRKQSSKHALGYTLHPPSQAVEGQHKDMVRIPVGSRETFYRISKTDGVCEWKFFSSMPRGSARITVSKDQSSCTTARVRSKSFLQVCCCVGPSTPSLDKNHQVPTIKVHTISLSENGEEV
T1 sequence (P25100 whole entry): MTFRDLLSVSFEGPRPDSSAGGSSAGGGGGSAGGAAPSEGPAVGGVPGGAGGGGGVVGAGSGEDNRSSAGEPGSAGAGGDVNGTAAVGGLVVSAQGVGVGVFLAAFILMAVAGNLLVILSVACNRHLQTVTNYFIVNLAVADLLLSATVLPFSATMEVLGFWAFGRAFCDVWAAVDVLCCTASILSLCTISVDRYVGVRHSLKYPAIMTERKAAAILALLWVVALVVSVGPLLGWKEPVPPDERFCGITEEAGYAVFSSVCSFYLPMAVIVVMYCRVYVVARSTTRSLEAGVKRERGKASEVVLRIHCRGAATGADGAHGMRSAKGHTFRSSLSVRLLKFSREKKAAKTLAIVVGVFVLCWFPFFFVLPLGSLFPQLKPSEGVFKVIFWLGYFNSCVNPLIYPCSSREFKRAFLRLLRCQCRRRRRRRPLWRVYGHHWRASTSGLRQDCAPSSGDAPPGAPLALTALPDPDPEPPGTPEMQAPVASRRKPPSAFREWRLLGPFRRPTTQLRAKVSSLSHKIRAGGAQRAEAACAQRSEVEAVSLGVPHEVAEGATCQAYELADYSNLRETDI
T1 sequence (P35368 whole entry): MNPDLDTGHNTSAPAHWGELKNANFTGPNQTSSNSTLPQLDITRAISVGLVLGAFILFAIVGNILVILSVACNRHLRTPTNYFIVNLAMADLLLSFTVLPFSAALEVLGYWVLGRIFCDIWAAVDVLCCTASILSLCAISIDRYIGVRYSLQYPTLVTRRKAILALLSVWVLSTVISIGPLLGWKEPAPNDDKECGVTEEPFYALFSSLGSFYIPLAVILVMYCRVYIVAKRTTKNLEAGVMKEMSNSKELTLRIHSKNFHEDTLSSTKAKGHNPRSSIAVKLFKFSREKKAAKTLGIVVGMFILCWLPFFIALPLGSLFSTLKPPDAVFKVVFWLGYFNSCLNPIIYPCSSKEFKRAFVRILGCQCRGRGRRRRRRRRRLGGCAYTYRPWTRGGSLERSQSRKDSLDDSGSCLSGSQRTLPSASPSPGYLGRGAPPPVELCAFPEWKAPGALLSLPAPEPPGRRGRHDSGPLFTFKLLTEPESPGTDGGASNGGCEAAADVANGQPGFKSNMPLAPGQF

Canis familiaris [9] = assay: Effect on solid gastric emptying in iv dosed dog; type: functional; settings: Canis lupus familiaris, Stomach
[10] = target: T2, 5-hydroxytryptamine receptor 4 (Rattus norvegicus, UniProt Q62758); assay: Agonism at 5HT4 receptor in rat tunica muscularis mucosa; type: functional
[11] = target: T2, 5-hydroxytryptamine receptor 4; assay: Antagonism at 5HT4 receptor in rat tunica muscularis mucosa; type: functional, tissue-based; settings: read-out: pA2 (converted)
[12] = target: T3, Serotonin 3 (5-HT3) receptor (Rattus norvegicus, UniProt P35563+Q9JJ16); assay: Displacement of [3H]GR65630 from 5HT3 receptor in brain cortex from Wistar rat; type: tissue-based
T3 sequence (P35563 whole entry): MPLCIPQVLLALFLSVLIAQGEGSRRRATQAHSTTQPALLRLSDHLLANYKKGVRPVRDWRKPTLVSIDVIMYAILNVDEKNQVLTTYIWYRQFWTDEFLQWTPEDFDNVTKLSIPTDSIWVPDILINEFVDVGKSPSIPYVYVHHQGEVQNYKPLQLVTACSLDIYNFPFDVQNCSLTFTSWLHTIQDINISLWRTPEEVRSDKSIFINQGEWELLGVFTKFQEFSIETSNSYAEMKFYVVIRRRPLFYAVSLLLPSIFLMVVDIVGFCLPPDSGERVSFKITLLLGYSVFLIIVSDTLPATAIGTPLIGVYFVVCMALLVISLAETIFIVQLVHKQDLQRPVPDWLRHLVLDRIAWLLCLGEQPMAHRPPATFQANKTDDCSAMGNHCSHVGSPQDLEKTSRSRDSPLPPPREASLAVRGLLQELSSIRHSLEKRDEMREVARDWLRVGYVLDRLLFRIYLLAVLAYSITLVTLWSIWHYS
T3 sequence (Q9JJ16 whole entry): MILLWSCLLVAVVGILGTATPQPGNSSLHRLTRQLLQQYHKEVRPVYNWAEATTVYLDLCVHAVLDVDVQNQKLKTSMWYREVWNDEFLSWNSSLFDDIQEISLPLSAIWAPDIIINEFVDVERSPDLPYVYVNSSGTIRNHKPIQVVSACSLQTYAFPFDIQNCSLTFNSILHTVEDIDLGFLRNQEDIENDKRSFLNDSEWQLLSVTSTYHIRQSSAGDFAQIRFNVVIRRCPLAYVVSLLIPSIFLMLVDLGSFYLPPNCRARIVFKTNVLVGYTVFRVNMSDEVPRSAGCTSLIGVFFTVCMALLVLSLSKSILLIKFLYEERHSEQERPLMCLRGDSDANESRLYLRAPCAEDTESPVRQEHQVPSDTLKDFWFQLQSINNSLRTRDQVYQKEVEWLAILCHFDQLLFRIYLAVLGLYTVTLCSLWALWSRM

Chain of Beta-1 adrenergic receptor (P08588 whole entry): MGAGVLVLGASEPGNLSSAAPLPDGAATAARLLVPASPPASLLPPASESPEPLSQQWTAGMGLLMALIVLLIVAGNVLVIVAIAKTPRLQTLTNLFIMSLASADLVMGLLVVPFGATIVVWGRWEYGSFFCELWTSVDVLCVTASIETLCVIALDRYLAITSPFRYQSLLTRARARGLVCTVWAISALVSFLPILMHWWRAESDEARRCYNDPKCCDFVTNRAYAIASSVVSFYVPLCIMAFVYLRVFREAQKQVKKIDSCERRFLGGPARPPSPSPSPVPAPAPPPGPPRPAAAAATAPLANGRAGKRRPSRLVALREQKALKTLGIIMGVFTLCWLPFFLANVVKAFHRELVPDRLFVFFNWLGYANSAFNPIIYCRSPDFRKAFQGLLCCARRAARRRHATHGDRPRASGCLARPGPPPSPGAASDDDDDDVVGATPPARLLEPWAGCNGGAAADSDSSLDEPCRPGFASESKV
T2 sequence (Q62758 whole entry): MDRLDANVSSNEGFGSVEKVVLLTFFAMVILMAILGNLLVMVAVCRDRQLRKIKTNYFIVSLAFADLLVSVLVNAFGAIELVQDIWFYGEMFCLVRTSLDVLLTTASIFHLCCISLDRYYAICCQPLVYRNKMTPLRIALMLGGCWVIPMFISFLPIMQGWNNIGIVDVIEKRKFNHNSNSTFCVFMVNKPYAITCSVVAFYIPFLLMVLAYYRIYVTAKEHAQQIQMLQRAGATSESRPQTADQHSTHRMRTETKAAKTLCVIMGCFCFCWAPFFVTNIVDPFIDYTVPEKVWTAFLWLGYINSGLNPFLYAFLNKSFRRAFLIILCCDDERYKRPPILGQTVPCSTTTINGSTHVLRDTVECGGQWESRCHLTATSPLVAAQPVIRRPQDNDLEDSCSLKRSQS
Chain of Serotonin 3 receptor (5HT3) (Mus musculus) (P23979 whole entry, looked up): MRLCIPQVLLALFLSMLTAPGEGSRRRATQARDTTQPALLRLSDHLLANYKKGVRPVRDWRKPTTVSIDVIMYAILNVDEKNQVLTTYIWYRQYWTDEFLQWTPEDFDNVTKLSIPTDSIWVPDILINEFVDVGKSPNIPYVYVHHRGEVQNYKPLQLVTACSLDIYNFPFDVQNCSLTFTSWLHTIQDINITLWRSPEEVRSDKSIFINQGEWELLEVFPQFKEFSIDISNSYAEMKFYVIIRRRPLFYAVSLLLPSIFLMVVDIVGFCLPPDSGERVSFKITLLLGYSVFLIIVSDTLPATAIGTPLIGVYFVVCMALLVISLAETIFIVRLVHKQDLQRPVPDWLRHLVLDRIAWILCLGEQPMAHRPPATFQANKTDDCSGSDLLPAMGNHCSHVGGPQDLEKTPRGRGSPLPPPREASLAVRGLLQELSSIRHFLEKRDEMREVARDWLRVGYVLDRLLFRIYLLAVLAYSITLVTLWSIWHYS
Chain of Serotonin 3 receptor (5HT3) (Mus musculus) (Q9JHJ5 whole entry, looked up): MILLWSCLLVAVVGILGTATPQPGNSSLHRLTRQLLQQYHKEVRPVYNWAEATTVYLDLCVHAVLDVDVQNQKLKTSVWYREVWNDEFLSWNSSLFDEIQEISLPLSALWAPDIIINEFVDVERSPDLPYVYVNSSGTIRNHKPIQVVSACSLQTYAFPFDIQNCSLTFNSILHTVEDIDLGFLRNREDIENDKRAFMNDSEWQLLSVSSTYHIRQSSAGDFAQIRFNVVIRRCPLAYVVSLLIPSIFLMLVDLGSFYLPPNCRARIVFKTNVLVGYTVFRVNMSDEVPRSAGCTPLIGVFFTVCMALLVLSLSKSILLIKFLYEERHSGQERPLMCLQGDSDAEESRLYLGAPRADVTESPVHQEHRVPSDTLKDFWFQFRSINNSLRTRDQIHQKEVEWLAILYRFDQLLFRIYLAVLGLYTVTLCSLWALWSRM

Row | SMILES | Activity (Salmonella typhi [1]) | Activity (Salmonella typhi [2]) | ED50 (Canis familiaris [3]) [µg/kg] | Activity (Salmonella typhi [4]) | Activity (Salmonella typhi [5]) | IC50 [6] [nM] | inhibition [7] [%] | IC50 [8] [nM] | ED50 (Canis familiaris [9]) [µg/kg] | EC50 [10] [nM] | Kb [11] [nM] | Ki [12] [nM]
1 | COc1cc(N)c(Cl)cc1C(=O)NC[C@@H]1CCN2CCC[C@@H]12 | Active | Active | 10 | Active | Active | > 10000 | 7 | > 10000 | 1 | 16.5 | – | –
2 | Cn1nc(C(=O)OC[C@@H]2CCN3CCC[C@@H]23)c2ccccc21 (single isomer, unassigned) | – | – | – | – | – | > 10000 | – | > 10000 | – | – | 2.75 | 20
3 | O=C(OC[C@@H]1CCN2CCC[C@@H]12)c1[nH]nc2ccccc12 (single isomer, unassigned) | – | – | – | – | – | > 10000 | – | > 10000 | – | – | 3.31 | 135
4 | O=C(OC[C@@H]1CCN2CCC[C@@H]12)c1c[nH]c2ccccc12 | – | – | – | – | – | > 10000 | – | > 10000 | – | – | 1.17 | 5
5 | COc1cc(N)c(Cl)cc1C(=O)N[C@@H]1C2CC3CN(C2)CC31 (stereo not given in full) | – | – | – | – | – | > 10000 | – | > 10000 | – | – | – | 1.2
6 | O=C(NC[C@@H]1CCN2CCC[C@@H]12)c1cc(Cl)cn2ccnc12 | – | – | – | – | – | > 10000 | – | > 10000 | – | > 10000 | 7.41 | 259
